From patent publication US20090306060A1 (priority 2004, published 2009)
Where two headings read alike, the source gives them in different places.

Tested on: hybrid corn varieties
Assay type: in vivo
Conditions: for GY BU (2) (Grain Yield in bushels) / PC # (1): IFSA Inbred FR-A
[1] = Fludioxonil 3.5 GA/100 Kg seed, Azoxystrobin 1 GA/100 Kg seed
[2] = IFSA Inbred FR-C, Fludioxonil 3.5 GA/100 Kg seed, Azoxystrobin 1 GA/100 Kg seed
[3] = IFSA Inbred FR-D, Fludioxonil 3.5 GA/100 Kg seed, Azoxystrobin 1 GA/100 Kg seed
[4] = IFSA Inbred FR-F, Fludioxonil 3.5 GA/100 Kg seed, Azoxystrobin 1 GA/100 Kg seed
[5] = IFSA Inbred FR-G, Fludioxonil 3.5 GA/100 Kg seed, Azoxystrobin 1 GA/100 Kg seed
[6] = IFSA Inbred W-A, Fludioxonil 3.5 GA/100 Kg seed, Azoxystrobin 1 GA/100 Kg seed
[7] = IFSA Inbred W-B, Fludioxonil 3.5 GA/100 Kg seed, Azoxystrobin 1 GA/100 Kg seed
[8] = IFSA Inbred FR-C, Fludioxonil 2.5 GA/100 Kg seed
[9] = IFSA Inbred FR-D, Fludioxonil 2.5 GA/100 Kg seed
[10] = IFSA Inbred FR-F, Fludioxonil 2.5 GA/100 Kg seed
[11] = IFSA Inbred FR-G, Fludioxonil 2.5 GA/100 Kg seed
[12] = IFSA Inbred W-A, Fludioxonil 2.5 GA/100 Kg seed
[13] = IFSA Inbred W-B, Fludioxonil 2.5 GA/100 Kg seed

| Compound | GY BU (2) (Grain Yield in bushels) [1] | PC # (1) [1] | GY BU [2] | PC # [2] | GY BU [3] | PC # [3] | GY BU [4] | PC # [4] | GY BU [5] | PC # [5] | GY BU [6] | PC # [6] | GY BU [7] | PC # [7] | also measured |
| --- | --- | --- | --- | --- | --- | --- | --- | --- | --- | --- | --- | --- | --- | --- | --- |
| CO/C=C(/C(=O)OC)c1ccccc1Oc1cc(Oc2ccccc2C#N)ncn1 [Azoxystrobin, azoxystrobin] | 168 a BU | 23232 a | 187 ab BU | 24086 ab | 193 a BU | 23574 a | 179 b BU | 18107 bc | 89 a BU | 13153 a | 173 ab BU | 19645 a | 204 a BU | 23574 ab | – |
| N#Cc1c[nH]cc1-c1cccc2c1OC(F)(F)O2 [Fludioxonil, fludioxonil] | 180 a BU | 23744 a | 176 b BU | 23915 ab | 185 a BU | 24599 a | 225 a BU | 24428 a | 85 a BU | 11787 ab | 180 ab BU | 19986 a | 204 a BU | 22036 b | GY BU (2) (Grain Yield in bushels) (Fludioxonil 2.5 GA/100 Kg seed): 181 a BU; PC # (1) (Fludioxonil 2.5 GA/100 Kg seed): 23403 a; GY BU [8]: 198 a BU; PC # [8]: 24428 a; GY BU [9]: 184 a BU; PC # [9]: 23574 a; GY BU [10]: 183 b BU; PC # [10]: 19986 b; GY BU [11]: 83 a BU; PC # [11]: 13495 a; GY BU [12]: 172 ab BU; PC # [12]: 19474 a; GY BU [13]: 215 a BU; PC # [13]: 24599 a |
